In US9693997B2, “Antiviral compounds” (priority 2013, dated 2017):
Structures can show the parent of a compound that is named as a salt. Where two headings read alike, the source gives them in different places.

Legend:
[1] = system: Pseudotyped HCV GT1b particles (HCVpp), entry into Huh7-high CD81 cells; test: microbe, parasite or virus in culture; format: cell-based, HCV GT1b Con1 strain
[2] = system: pseudotyped VSV G particles (VSVpp) in Huh7-high CD81 cells; test: microbe, parasite or virus in culture; format: cell-based, vesicular stomatitis virus
[3] = Hepatitis C virus, GT1B, 72 h, read-out: HCVpp GT-1b (EC50, μM)
[4] = Vesicular stomatitis virus, 72 h, read-out: VSVpp (EC50, μM)

## 4′-(5-amino-1H-1,2,4-triazol-3-ylamino)-2′-chloro-3-methoxy-N-(piperidin-4-yl)-6′-(trifluoromethyl)biphenyl-4-sulfonamide hydrochloride [Compound 178]
[1]; read-out: HCVpp GT-1b (EC50)
  EC50: 0.023 µM
[2]; read-out: VSVpp (EC50)
  EC50: > 10 µM

## Nc1nc(Nc2cc(Cl)c(-c3ccc(OC[C@H]4CCCN4)cc3)c(C(F)(F)F)c2)n[nH]1 (stereo in doubt) [Compound 279, N*3*-[6-Chloro-4′-(pyrrolidin-2-ylmethoxy)-2-trifluoromethyl-biphenyl-4-yl]-1H-[1,2,4]triazole-3,5-diamine]
[1]; [3]
  EC50: 0.193 µM
[2]; [4]
  EC50: 37 µM

## CC(C)(C)OC(=O)[C@@H]1CCCN1S(=O)(=O)c1ccc(-c2c(Cl)cc(Nc3n[nH]c(N)n3)cc2C(F)(F)F)cc1 [Compound 3, (S)-1-[4′-(5-Amino-1H-[1,2,4]triazol-3-ylamino)-2′-chloro-6′-trifluoromethyl-biphenyl-4-sulfonyl]-pyrrolidine-2-carboxylic acid tert-butyl ester]
[1]; [3]
  EC50: 0.005 µM
[2]; [4]
  EC50: 4.37 µM

## Nc1nc(Nc2cc(Cl)c(-c3ccc(S(=O)(=O)C4CCN(CCC(F)(F)F)CC4)cc3)c(C(F)(F)F)c2)n[nH]1 [Compound 4, N*3*-{2-Chloro-6-trifluoromethyl-4′-[1-(3,3,3-trifluoro-propyl)-piperidine-4-sulfonyl]-biphenyl-4-yl}-1H-[1,2,4]triazole-3,5-diamine; hydrochloride]
[1]; [3]
  EC50: 0.005 µM
[2]; [4]
  EC50: > 10 µM

## CC(C)(C)CCN1CCC(S(=O)(=O)c2ccc(-c3c(Cl)cc(Nc4n[nH]c(N)n4)cc3C(F)(F)F)cc2)CC1 [Compound 5, N*3*-{2-Chloro-4′-[1-(3,3-dimethyl-butyl)-piperidine-4-sulfonyl]-6-trifluoromethyl-biphenyl-4-yl}-1H-[1,2,4]triazole-3,5-diamine; hydrochloride]
[1]; [3]
  EC50: 0.005 µM
[2]; [4]
  EC50: > 10 µM

## CC(C)(C)OC(=O)N1CCCC(S(=O)(=O)c2ccc(-c3c(Cl)cc(Nc4n[nH]c(N)n4)cc3C(F)(F)F)cc2)C1 (stereo not drawn) [Compound 6, 3-[4′-(5-Amino-1H-[1,2,4]triazol-3-ylamino)-2′-chloro-6′-trifluoromethyl-biphenyl-4-sulfonyl]-piperidine-1-carboxylic acid tert-butyl ester]
[1]; [3]
  EC50: 0.008 µM
[2]; [4]
  EC50: 2.56 µM

## CC(C)(C)OC(=O)N1CCC(CS(=O)(=O)c2ccc(-c3c(Cl)cc(Nc4n[nH]c(N)n4)cc3C(F)(F)F)cc2)CC1 [Compound 7, 4-[4′-(5-Amino-1H-[1,2,4]triazol-3-ylamino)-2′-chloro-6′-trifluoromethyl-biphenyl-4-sulfonylmethyl]-piperidine-1-carboxylic acid tert-butyl ester]
[1]; [3]
  EC50: 0.017 µM
[2]; [4]
  EC50: 3.09 µM

## CC(C)(C)NC(=O)c1ccc(-c2c(Cl)cc(Nc3n[nH]c(N)n3)cc2Cl)cc1 [Compound 8, 4′-(5-Amino-1H-[1,2,4]triazol-3-ylamino)-2′,6′-dichloro-biphenyl-4-carboxylic acid tert-butylamide]
[1]; [3]
  EC50: 0.013 µM
[2]; [4]
  EC50: > 10 µM

## CCCCC(=O)Nc1ccc(-c2c(Cl)cc(Nc3n[nH]c(N)n3)cc2Cl)cc1 [Compound 9, Pentanoic acid [4′-(5-amino-1H-[1,2,4]triazol-3-ylamino)-2′,6′-dichloro-biphenyl-4-yl]-amide]
[1]; [3]
  EC50: 0.014 µM
[2]; [4]
  EC50: 5.05 µM

## CC(C)(C)N1Cc2ccc(-c3c(Cl)cc(Nc4n[nH]c(N)n4)cc3C(F)(F)F)cc2S1(=O)=O [Compound 10, N*3*-[4-(2-tert-Butyl-1,1-dioxo-2,3-dihydro-1H-1lambda*6*-benzo[d]isothiazol-6-yl)-3-chloro-5-trifluoromethyl-phenyl]-1H-[1,2,4]triazole-3,5-diamine]
[1]; [3]
  EC50: 0.015 µM
[2]; [4]
  EC50: > 10 µM

## Nc1nc(Nc2cc(Cl)c(-c3ccc(S(=O)(=O)C4CCCN(CCC(F)(F)F)C4)cc3)c(C(F)(F)F)c2)n[nH]1 (stereo not drawn) [Compound 11, N*3*-{2-Chloro-6-trifluoromethyl-4′-[1-(3,3,3-trifluoro-propyl)-piperidine-3-sulfonyl]-biphenyl-4-yl}-1H-[1,2,4]triazole-3,5-diamine; hydrochloride]
[1]; [3]
  EC50: 0.017 µM
[2]; [4]
  EC50: 6.78 µM

## C[C@H](NS(C)(=O)=O)c1ccc(-c2c(Cl)cc(Nc3n[nH]c(N)n3)cc2C(F)(F)F)cc1 [Compound 13, N—{(S)-1-[4′-(5-Amino-1H-[1,2,4]triazol-3-ylamino)-2′-chloro-6′-trifluoromethyl-biphenyl-4-yl]-ethyl}-methanesulfonamide]
[1]; [3]
  EC50: 0.027 µM
[2]; [4]
  EC50: 21 µM

## CS(=O)(=O)c1ccc(-c2c(Cl)cc(Nc3n[nH]c(N)n3)cc2Cl)cc1C(F)(F)F [Compound 14, N*3*-(2,6-Dichloro-4′-methanesulfonyl-3′-trifluoromethyl-biphenyl-4-yl)-1H-[1,2,4]triazole-3,5-diamine]
[1]; [3]
  EC50: 0.052 µM
[2]; [4]
  EC50: 0.12 µM

## CS(=O)(=O)n1ccc2c(-c3c(Cl)cc(Nc4n[nH]c(N)n4)cc3Cl)cccc21 [Compound 15, N*3*-[3,5-Dichloro-4-(1-methanesulfonyl-1H-indol-4-yl)-phenyl]-1H-[1,2,4]triazole-3,5-diamine]
[1]; [3]
  EC50: 0.05 µM
[2]; [4]
  EC50: 0.23 µM

## CC(C)(C)OC(=O)N1CCN(S(=O)(=O)c2ccc(-c3c(Cl)cc(Nc4n[nH]c(N)n4)cc3C(F)(F)F)cc2)CC1 [Compound 16, 4-[4′-(5-Amino-1H-[1,2,4]triazol-3-ylamino)-2′-chloro-6′-trifluoromethyl-biphenyl-4-sulfonyl]-piperazine-1-carboxylic acid tert-butyl ester]
[1]; [3]
  EC50: 0.03 µM
[2]; [4]
  EC50: > 10 µM

## CC(C)(C)CCN1CCCC(S(=O)(=O)c2ccc(-c3c(Cl)cc(Nc4n[nH]c(N)n4)cc3C(F)(F)F)cc2)C1 (stereo not drawn) [Compound 17, N*3*-{2-Chloro-4′-[1-(3,3-dimethyl-butyl)-piperidine-3-sulfonyl]-6-trifluoromethyl-biphenyl-4-yl}-1H-[1,2,4]triazole-3,5-diamine; hydrochloride]
[1]; [3]
  EC50: 0.043 µM
[2]; [4]
  EC50: 4.9 µM

## Cc1ccc(-c2c(Cl)cc(Nc3n[nH]c(N)n3)cc2C(F)(F)F)cc1S(=O)(=O)NC(C)(C)C [Compound 18, 4′-(5-Amino-1H-[1,2,4]triazol-3-ylamino)-2′-chloro-4-methyl-6′-trifluoromethyl-biphenyl-3-sulfonic acid tert-butylamide]
[1]; [3]
  EC50: 0.032 µM
[2]; [4]
  EC50: 3.47 µM

## COc1ccc(-c2c(Cl)cc(Nc3n[nH]c(N)n3)cc2C(F)(F)F)cc1S(=O)(=O)C(C)C [Compound 19, N*3*-[2-Chloro-4′-methoxy-3′-(propane-2-sulfonyl)-6-trifluoromethyl-biphenyl-4-yl]-1H-[1,2,4]triazole-3,5-diamine]
[1]; [3]
  EC50: 0.049 µM
[2]; [4]
  EC50: > 10 µM

## Nc1nc(Nc2cc(Cl)c(-c3ccc(S(=O)(=O)C4CCNCC4)cc3)c(C(F)(F)F)c2)n[nH]1 [Compound 20, N3-(2-chloro-4′-(piperidin-4-ylsulfonyl)-6-(trifluoromethyl)biphenyl-4-yl)-1H-1,2,4-triazole-3,5-diamine hydrochloride]
[1]; [3]
  EC50: 0.053 µM
[2]; [4]
  EC50: 3.46 µM

## CC(C)(C)OC(=O)N1CCC(Oc2cccc(-c3c(Cl)cc(Nc4n[nH]c(N)n4)cc3C(F)(F)F)c2)CC1 [Compound 21, 4-[4′-(5-Amino-1H-[1,2,4]triazol-3-ylamino)-2′-chloro-6′-trifluoromethyl-biphenyl-3-yloxy]-piperidine-1-carboxylic acid tert-butyl ester]
[1]; [3]
  EC50: 0.039 µM
[2]; [4]
  EC50: > 10 µM

## CN1CCN(S(=O)(=O)c2ccc(-c3c(Cl)cc(Nc4n[nH]c(N)n4)cc3C(F)(F)F)cc2)CC1 [Compound 22, N*3*-[2-Chloro-4′-(4-methyl-piperazine-1-sulfonyl)-6-trifluoromethyl-biphenyl-4-yl]-1H-[1,2,4]triazole-3,5-diamine]
[1]; [3]
  EC50: 0.053 µM
[2]; [4]
  EC50: 13.5 µM

## C[C@@H](NS(C)(=O)=O)c1ccc(-c2c(Cl)cc(Nc3n[nH]c(N)n3)cc2C(F)(F)F)cc1 [Compound 24, N—{(R)-1-[4′-(5-Amino-1H-[1,2,4]triazol-3-ylamino)-2′-chloro-6′-trifluoromethyl-biphenyl-4-yl]-ethyl}-methanesulfonamide]
[1]; [3]
  EC50: 0.058 µM
[2]; [4]
  EC50: > 10 µM

## Nc1nc(Nc2cc(Cl)c(-c3ccc(S(=O)(=O)CC4CCCNC4)cc3)c(C(F)(F)F)c2)n[nH]1 (stereo not drawn) [Compound 25, N*3*-[2-Chloro-4′-(piperidin-3-ylmethanesulfonyl)-6-trifluoromethyl-biphenyl-4-yl]-1H-[1,2,4]triazole-3,5-diamine; hydrochloride]
[1]; [3]
  EC50: 0.059 µM
[2]; [4]
  EC50: > 10 µM

## Nc1nc(Nc2cc(Cl)c(-c3ccc(S(=O)(=O)NC[C@@H]4CCCN4)cc3)c(C(F)(F)F)c2)n[nH]1 [Compound 27, 4′-(5-Amino-1H-[1,2,4]triazol-3-ylamino)-2′-chloro-6′-trifluoromethyl-biphenyl-4-sulfonic acid ((S)-1-pyrrolidin-2-ylmethyl)-amide; hydrochloride]
[1]; [3]
  EC50: 0.052 µM
[2]; [4]
  EC50: 30.1 µM

## COc1ccc(-c2c(Cl)cc(Nc3n[nH]c(N)n3)cc2C(F)(F)F)cc1S(=O)(=O)NC1CCOCC1 [Compound 168, 4′-(5-amino-1H-1,2,4-triazol-3-ylamino)-2′-chloro-4-methoxy-N-(tetrahydro-2H-pyran-4-yl)-6′-(trifluoromethyl)biphenyl-3-sulfonamide]
[1]; [3]
  EC50: 0.011 µM

## COc1ccc(-c2c(Cl)cc(Nc3n[nH]c(N)n3)cc2C(F)(F)F)cc1S(N)(=O)=O [Compound 180, 4′-(5-amino-1H-1,2,4-triazol-3-ylamino)-2′-chloro-4-methoxy-6′-(trifluoromethyl)biphenyl-3-sulfonamide]
[1]; [3]
  EC50: 0.036 µM

## COc1ccc(-c2c(Cl)cc(Nc3n[nH]c(N)n3)cc2C(F)(F)F)cc1S(=O)(=O)NC1CCNCC1 [Compound 222, 4′-(5-Amino-1H-[1,2,4]triazol-3-ylamino)-6′-chloro-4-methoxy-2′-trifluoromethyl-biphenyl-3-sulfonic acid piperidin-4-ylamide; compound with trifluoro-acetic acid]
[1]; read-out: HCVpp GT-1b (EC50)
  EC50: 0.014 µM
